According to paper PMC11211886 (Frontiers in Pharmacology, 2024):

Key:
[1] = Single-dose PK in cynomolgus monkeys (IV/PO); type: in vivo, cynomolgus monkey
OAT3 = biological target: T1, OAT3 (Homo sapiens, UniProt Q8TCC7); assay: OAT3 inhibition, estrone 3-sulfate uptake in transfected HEK293 cells
T1 sequence (Q8TCC7 1-542): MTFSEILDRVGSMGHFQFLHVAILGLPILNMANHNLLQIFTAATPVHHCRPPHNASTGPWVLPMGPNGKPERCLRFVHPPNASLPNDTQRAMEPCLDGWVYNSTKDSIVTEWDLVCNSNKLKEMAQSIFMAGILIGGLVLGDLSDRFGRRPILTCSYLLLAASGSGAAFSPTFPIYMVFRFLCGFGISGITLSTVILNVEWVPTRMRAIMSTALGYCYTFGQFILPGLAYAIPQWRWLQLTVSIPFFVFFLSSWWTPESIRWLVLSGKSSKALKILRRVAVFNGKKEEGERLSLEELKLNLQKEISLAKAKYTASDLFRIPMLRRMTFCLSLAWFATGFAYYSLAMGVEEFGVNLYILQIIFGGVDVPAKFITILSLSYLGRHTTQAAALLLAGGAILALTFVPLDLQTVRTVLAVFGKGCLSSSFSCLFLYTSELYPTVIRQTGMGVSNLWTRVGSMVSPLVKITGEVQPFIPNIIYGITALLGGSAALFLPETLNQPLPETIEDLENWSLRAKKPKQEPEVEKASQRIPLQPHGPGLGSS
Protocol: The pre-incubation solutions were removed, and incubation solutions containing the inhibitors and probe substrates (or transport buffer containing an equal volume of vehicle control and probe substrates) were added and incubated at 37°C for 2 min (5 min for OATP1B3). The probe substrate for OAT1 was 4-aminohippuric acid (10 μM), for OAT3 was estrone 3-sulfate (10 μM), for OCT2 was metformin (100 μM), for OATP1B1 was β-estradiol 17-(β-D-glucuronide) (5 μM), for OATP1B3 was β-estradiol 17-(β-D-glucuronide) (10 μM), and for MATE1 and MATE2-K was tetraethylammonium (10 μM). After incubation, cells were washed three times with ice-cold transport buffer (25 mM HEPES, pH 7.4, pH 8.0 for overexpressing MATE1 and MATE2-K HEK293 cells) and lysed in distilled water. The concentrations of probe substrates were determined by LC-MS/MS, and a BCA Kit (Solarbio ®Life Sciences, Beijing, China) was used to determine the protein content in the cell lysate.
where C is the concentration of the drug in the cell lysate (nM), P is the protein concentration of the cell lysate (mg/mL), and T is the incubation time (minute). Uptake ratetest compound is the uptake rate of the substrate in the presence of the test compound. Uptake ratevehicle control is the uptake rate of the substrate in the presence of the vehicle control. Uptake ratepassive is the uptake rate of the substrate in the presence of the positive inhibitor at the top test concentration.

[2] = Whole blood-to-plasma partition, rat blood; type: in vitro ADME
Protocol: (§1) The whole blood and plasma samples were incubated at 37°C for up to 1 h. Serial samples (150 µL) were collected at different time points (0, 10, and 60 min) and transferred into new tubes. The whole blood samples were then centrifuged at 1700 g for 15 min to harvest plasma.

[3] = humans, RP2D 30 mg, phase Ib (n = 90); ref European Society for Medical Oncology, 2021; cited from earlier work
[4] = Single-dose PK in ICR mice (IV/PO)
Protocol: All intravenous and oral dose formulations were analyzed by liquid chromatography coupled with tandem mass spectrometry (LC-MS/MS) to confirm test article concentration and determine formulation stability.
Animals had free access to food, and water was allowed ad libitum. […] The blood samples were collected with sodium heparin as an anticoagulant. The plasma samples were obtained from blood samples by centrifugation and stored at −80°C until analysis.
A total of eighteen mice were divided into intravenous (IV) and oral (PO) administration groups, with nine animals in each group. The mice were fasted overnight with free access to water before dosing. […] After the mice were anesthetized with isoflurane, approximately 100 μL of whole blood was collected through the retro-orbital sinus and transferred to a 1.5 mL tube containing sodium heparin. The gathered blood samples were kept on ice until centrifugation. Plasma samples were harvested by centrifugation at 1,500 g for 10 min at 4°C.
Pharmacokinetic parameters were calculated by a non-compartmental method using Thermo Kinetica® (Version 5.1 SP1, Thermo Electron Corporation, Philadelphia, Pennsylvania, United States). The area under the plasma concentration–time curve from time zero to the time of the last measurable sample (AUC0-t) or the plasma concentration–time curve from time zero to infinity (AUC0-inf) was calculated using the linear trapezoidal method.

plasma proteins = assay: Plasma protein binding (RED), rat plasma; type: in vitro ADME
Protocol: The plate containing plasma and buffer was equilibrated for 6 h in a 37°C water shaking bath. After incubation, aliquots of buffer and plasma (20 µL) on both sides were collected and precipitated using organic solvents. […] The post-dialysis recovery of amdizalisib was also measured.

[5] = Whole blood-to-plasma partition, dog blood; type: in vitro ADME
Protocol: as §1

[6] = both sexes, cynomolgus monkey, in vivo, iv, 1 mg/kg
[7] = both sexes, cynomolgus monkey, in vivo, po, 5 mg/kg
[8] = male, ICR, mouse, in vivo, iv, 2.5 mg/kg
[9] = male, ICR, mouse, in vivo, po, 10 mg/kg

SMILES: C[C@H](Nc1ncnc(N)c1C#N)c1cc2ncc(Cl)n2nc1-c1ccccc1 [Amdizalisib]
- FPO ([1]; Cynomolgus monkey, fasted, PO 5 mg/kg, 5 mg/kg): 30.8 ± 8.48%
- AUC(0-inf) [1, 6]: 1520 ng·h/mL
- AUC(0-t) [1, 6]: 1490 ng·h/mL
- MRT [1, 6]: 2.2 ± 0.551 h
- clearance [1, 6]: 11.3 ± 2.36 mL/min/kg
- AUC(0-inf) [1, 7]: 2390 ng·h/mL
- AUC(0-t) [1, 7]: 2330 ng·h/mL
- Cmax [1, 7]: 480 ± 147 ng/mL
- MRT [1, 7]: 4.9 ± 1 h
- Tmax [1, 7]: 2 ± 0.632 h
- half-life [1, 7]: 3.1 ± 0.89 h
- Vd ([1]; both sexes, in vivo, Cynomolgus monkey, fasted, IV 1 mg/kg, read-out: Vss): 1.45 ± 0.207 L/kg
- half-life ([1]; both sexes, in vivo, Cynomolgus monkey, fasted, IV 1 mg/kg, read-out: t1/2 (converted)): 2.82 ± 0.469 h
- CL as % of the hepatic blood flow ([1]; both, cynomolgus monkey, in vivo, iv): 25.7%
- FPO ([1]; both, cynomolgus monkey, in vivo, po, 5 mg/kg): 30.8%
- IC50 (OAT3): 41.1 µM
- Percentage transported (OAT3; OAT3, compound 0.3 μM): 96.4%
- Uptake rate (OAT3; OAT3, compound 0.3 μM): 101±1.22 pmol/mg protein/min
- Percentage transported (OAT3; OAT3, compound 1 μM): 103%
- Uptake rate (OAT3; OAT3, compound 1 μM): 106±2.62 pmol/mg protein/min
- Percentage transported (OAT3; OAT3, compound 3 μM): 97.5%
- Uptake rate (OAT3; OAT3, compound 3 μM): 102±3.76 pmol/mg protein/min
- Percentage transported (OAT3; OAT3, compound 10 μM): 101%
- Uptake rate (OAT3; OAT3, compound 10 μM): 105±1.14 pmol/mg protein/min
- Percentage transported (OAT3; OAT3, compound 30 μM): 52.3%
- Uptake rate (OAT3; OAT3, compound 30 μM): 63.6±3.38 pmol/mg protein/min
- Percentage transported (OAT3; OAT3, compound 100 μM): 27.3%
- Uptake rate (OAT3; OAT3, compound 100 μM): 42.5±2.15 pmol/mg protein/min
- inhibition at 2 min, 0.3 µM (OAT3; human, pH 7.4): 3.57%
- inhibition at 2 min, 1 µM (OAT3; human, pH 7.4): -2.52%
- inhibition at 2 min, 3 µM (OAT3; human, pH 7.4): 2.54%
- inhibition at 2 min, 10 µM (OAT3; human, pH 7.4): -0.883%
- inhibition at 2 min, 30 µM (OAT3; human, pH 7.4): 47.7%
- inhibition at 2 min, 100 µM (OAT3; human, pH 7.4): 72.7%
- calculated R value (OAT3) (OAT3; renal OATs): < 1.1
- RB ([2]; rat blood, 1 μM, 0 min): 1.08
- RB ([2]; rat blood, 1 μM, 60 min): 1.03
- fuB ([2]; rat blood, 10 min): 8.41%
- fuB ([2]; rat, 0 min, 1 µM): 9.11%
- fup ([2]; rat, 1 µM): 0.0980
- RB ([2]; rat, 10 min, 1 µM): 1.16
- fuB ([2]; rat, 60 min, 1 µM): 9.49%
- Grade 3 diarrhea [3]: 2.2%
- colitis [3]: no colitis cases were reported
- serious GI toxicity [3]: less than 5%
- FPO ([4]; ICR mouse, fasted, PO 10 mg/kg): 101%
- AUC(0-inf) [4, 8]: 2830 ng·h/mL
- AUC(0-t) [4, 8]: 2700 ng·h/mL
- MRT [4, 8]: 2.12 h
- Vd [4, 8]: 1.87 L/kg
- clearance [4, 8]: 14.7 mL/min/kg
- half-life [4, 8]: 2.06 h
- AUC(0-inf) [4, 9]: 13700 ng·h/mL
- AUC(0-t) [4, 9]: 10900 ng·h/mL
- Cmax [4, 9]: 3080 ng/mL
- MRT [4, 9]: 4.91 h
- half-life [4, 9]: 4.16 h
- Binding fraction to plasma proteins, Rat (plasma proteins; 0.1 µM): 87.2 ± 1.72%
- Binding fraction to plasma proteins, Rat (plasma proteins; 1 µM): 90.2 ± 0.65%
- Binding fraction to plasma proteins, Rat (plasma proteins; 20 µM): 89.9 ± 0.37%
- RB ([5]; dog blood, 1 μM, 0 min): 1.01
- fuB ([5]; dog, 0 min, 1 µM): 10.9%
- fup ([5]; dog, 1 µM): 0.109
- RB ([5]; dog, 10 min, 1 µM): 0.874
- fuB ([5]; dog, 10 min, 1 µM): 12.5%
- RB ([5]; dog, 60 min, 1 µM): 0.968
- fuB ([5]; dog, 60 min, 1 µM): 11.3%
